This assay addresses T1, BaqAΔC (Rossellomorea aquimaris, UniProt G8IJA7).
T1 construct: gene baqA
T1 sequence (G8IJA7 24-478): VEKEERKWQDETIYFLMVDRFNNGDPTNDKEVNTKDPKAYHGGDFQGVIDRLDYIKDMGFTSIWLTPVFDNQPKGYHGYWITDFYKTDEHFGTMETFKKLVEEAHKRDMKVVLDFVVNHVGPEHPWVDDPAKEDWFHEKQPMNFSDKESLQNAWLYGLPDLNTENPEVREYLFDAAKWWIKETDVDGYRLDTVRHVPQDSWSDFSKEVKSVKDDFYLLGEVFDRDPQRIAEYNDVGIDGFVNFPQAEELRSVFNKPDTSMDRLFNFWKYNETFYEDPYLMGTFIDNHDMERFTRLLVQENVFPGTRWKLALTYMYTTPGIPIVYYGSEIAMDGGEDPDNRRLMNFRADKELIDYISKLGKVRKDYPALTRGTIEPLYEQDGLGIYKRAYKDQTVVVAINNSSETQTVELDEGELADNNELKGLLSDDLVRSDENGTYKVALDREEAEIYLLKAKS
Nature of the assay: intrinsic fluorescence quenching, modified Stern-Volmer plot. It counts as binding. The following applies: 50 mM HEPES pH 8; 15 min at 50 °C, spectra at 25 °C; n = 1.3; acarbose 15-75 mM.

The structures appear in SMILES notation.

Ka data for one compound are collected here from paper PMC12695923, “The role of N185D substitution in enhancing activity of BaqA∆C α-amylase” (Scientific Reports, 2025).

The compound `C[C@H]1O[C@H](O[C@H]2[C@H](O)[C@@H](O)[C@@H](O[C@H]3[C@H](O)[C@@H](O)C(O)O[C@@H]3CO)O[C@@H]2CO)[C@H](O)[C@@H](O)[C@@H]1N[C@H]1C=C(CO)[C@@H](O)[C@H](O)[C@H]1O` (stereo partly shown) [acarbose] gave a Ka of 0.032 mL/mg.
